Values of other authors as cited in publication PMC3362725, “An open-label, phase 1 study evaluating safety, tolerability, and pharmacokinetics of linifanib (ABT-869) in Japanese patients with solid tumors” (Cancer Chemotherapy and Pharmacology, 2012).

Set-up: method as in PMID 17634482, PMID 17557949, PMID 21131369
Conditions: mixed-population TKI phase 1 studies, phase 2 recommended dose levels; cited from earlier work

Structure (SMILES)	patients with Grade 3 hypertension
CC1(C)CNc2cc(NC(=O)c3cccnc3NCc3ccncc3)ccc21 [motesanib]	14–20%
Cc1cc2c(F)c(Oc3ncnn4cc(OC[C@@H](C)O)c(C)c34)ccc2[nH]1 [brivanib]	14–20%
